One may read the IC50 as the point on the concentration scale where inhibition reaches its midpoint. Read a high IC50 as weaker potency in that assay. By AUC is commonly meant concentration integrated over time. A lower AUC goes with low exposure.

SMILES strings stand for the structures.

The subject of one data set is OVCAR-3 tumors. Kind of data set: OVCAR-3 Tumor Xenograft Efficacy Study (IP). The conditions noted are these: 25 mg/kg IP once daily for 18 consecutive days.
A further data set relates to OVCAR-8 tumors. In words: OVCAR-8 Tumor Xenograft Efficacy Study (IP). The format is in vivo, mouse. On the procedure: (§1) Animals were dosed IP daily with vehicle alone, C9 (50 or 100 mg/kg), or C12 (25 or 50 mg/kg). […] Tumor volume and body weight assessment performed as described above. After the final dose on day 46, plasma pharmacokinetic analysis was performed as described above except blood was drawn by retro-orbital bleed method.

Data set [1] in a line: Tolerability (body weight, blood counts) in tumor-bearing nude mice. The format is in vivo, mouse. The conditions noted are these: 18 days. Here is the method:
Female athymic nude mice were injected with 5×10^6 cells in 0.1 mL subcutaneously in the right flank. After tumors were established (average tumor volume of 150 mm^3), animals were randomized into 4 treatment groups (vehicle alone, KIF18A inhibitor at 10, 30, or 100 mg/kg) with 10 animals per group and treated orally once per day (PO, QD) starting on day 25 post-tumor implantation. Tumor measurement was calculated from the length, width and height of tumors measured with a PRO-MAX electronic digital caliper (Japan Micrometer Mfg. Co. LTD). The tumor volume was calculated as [L×W×H] and expressed in mm^3. Tumor volume and animal body weight measurements were determined twice per week (study start day 25, study end day 45). A single mouse was removed from the study (KIF18A inhibitor 30 mg/kg group) due to abdominal distention, a finding likely unrelated to compound.
Data was plotted using GraphPad Prism software (V7.0.4), tumor volume and body weight data are expressed as means plus or minus standard error of the mean and plotted as a function of time. Statistical significance of observed differences between growth curves were calculated using SLACR package (v.1.0.3). Statistical significance for tumor regressions were performed by paired Student's t-Test on the initial and final tumor volumes with significant tumor regression p-values (***p≤0.0001) for all three KIF18A inhibitor treatment groups. KIF18A inhibitor dose 10 mg/kg (81% regression, 5 of 10 tumor-free), 30 mg/kg (98% regression, 8 of 9 tumor-free), and 100 mg/kg (97% regression, 7 of 10 tumor-free).
Female athymic nude mice were injected with 5×10^6 OVCAR-8 cells in 0.1 mL subcutaneously in the right flank. […] Tumor volume and animal body weight measurements were determined twice per week (study start day 25, study end day 47). Tumor measurements, formulas, and regression analysis as described above for FIGS. 5A-5B. Data was plotted using GraphPad Prism software (V7.0.4), tumor volume and body weight data are expressed as means plus or minus standard error of the mean and plotted as a function of time. Statistical significance of observed differences between growth curves were calculated using SLACR package (v.1.0.3).
(§2) Data was graphed using GraphPad Prism 7.05.
(§3) Tumor volume and body weight assessment performed as described above. After the final dose on day 36, plasma pharmacokinetic analysis was performed as described above. All data analysis was performed as described above.
as §1

Data set [2] addresses T1, human KIF18A (residues 1-467) (Homo sapiens, UniProt Q8NI77).
T1 construct: human KIF18A (residues 1-467, 4 nM); made in house
Kind of data set: KIF18A MT-ATPase motor activity, ADP-Glo luminescence assay (Example 19). The format is biochemical. On the procedure:
(§4) A trio of KIF18A inhibitors (Compound C9, Compound C11, and Compound C12) were synthesized and tested in vitro for KIF18A inhibitory activity. […] The values represent mean t SEM from three independent experiments. […] As in vivo studies in mice were planned, the mouse KIF18A inhibitory effects of Compound C9 and C12 were assayed.
(§5) KIF18A compounds C9, C11, C12 were 2-fold serially diluted over a 22-point concentration range in DMSO using 384-well plate (Corning). Recombinant truncated kinesin motor proteins (human KIF18A (residues 1-467, 4 nM), mouse KIF18A (residues 1-467, 4 nM)) were expressed and purified. ADP-Glo luminescence assay (Promega) was used to measure the MT-ATPase motor activity. Porcine brain MTs were procured from Cytoskeleton Inc. Compounds were pre-incubated for <30 min in reaction buffer (15 mM Tris, pH 7.5, 10 mM MgCl2, 0.01% Pluronic F-68, 2% DMSO, 1 μM paclitaxel, 30 μg/mL MTs) with motor proteins at concentrations indicated above, 30 μM ATP was added to initiate the enzymatic reaction for 15 min at room temperature (RT). ADP-Glo reagents were added according to manufactures protocol, the luminescence intensity proportional to ADP present was measured using an EnVision plate reader (Perkin Elmer). Raw luminescence signal data was normalized to POC (percentage of positive control) and then Activity (%) was computed [POC=100×(sample signal−negative control signal)+(positive control signal−negative control signal). Activity (%)=POC−100]. The positive control (enzyme+substrate) and negative control (substrate alone) had equivalent concentrations of DMSO. Curve-fitting and IC50 values were determined by 4-parameter non-linear regression equation (variable slope) using GraphPad Prism 7.05 (GraphPad Software).
Background: In ADP-Glo the light output rises with the ADP produced.

Data set [3] addresses T2, mouse KIF18A (residues 1-467) (Mus musculus, UniProt Q91WD7).
T2 construct: mouse KIF18A (residues 1-467, 4 nM); made in house
The description is as above. The format is biochemical. On the procedure: as §4, §5

The nature of data set [4]: Terminal plasma pharmacokinetic analysis in tumor-bearing mice. The format is in vivo, mouse. On the procedure: as §2, §3, §1
For the next data set, the system named is MDA-MB-157 cells. In words: pH3 and PCM spot EC50 determination. The conditions noted are these: pH3 and PCM spot EC50 values.
Data set [5] concerns human foreskin fibroblast (hFSF) cells. In words: BrdU incorporation assay in normal cells. The conditions noted are these: 48 hours. The format is cell-based. Here is the method: (§6) The effect KIF18A inhibitor treatment has on proliferation of normal somatic cells (e.g., not neoplastic cells) was tested by assaying proliferation of human bone marrow mononuclear cells (HBMNCs), primary human foreskin fibroblast cells (hFSF) and human mammary epithelial cells via a 5-bromo-2′-deoxyuridine (BrdU) incorporation assay in which BrdU, an analog of the nucleoside thymidine, is used to identify proliferating cells (Payton et. al., Molecular Cancer Therapeutics, 17(12):2575-85 (2018)). Cells were analyzed on BD LSRFortessa flow cytometer using BD FACSDiva software (BD Biosciences), and post-acquisition data analysis was performed using FSC-Express software (De Novo). The percentage of BrdU positive gated events on the stacked DNA content histograms were reported.
A general note: Uptake of a labelled nucleoside into DNA is a usual measure of proliferation.

The subject of data set [6] is human mammary epithelial cells (HMEC). In words: BrdU incorporation assay in normal cells. The format is cell-based. The conditions noted are these: 48 hours. Here is the method: as §6
Data set [7] deals with human bone marrow mononuclear cells (HBMNC). Kind of data set: BrdU cell cycle analysis and live cell count in normal cells. The format is cell-based. Here is the method:
as §6
To further examine the effects of KIF18A inhibitor treatment on HBMNC, two normal donors were assessed using the BrdU coupled cell cycle assay and cell count assay (96 hours) was. […] In particular, the amount of BrdU-stained proliferating cells treated with Ispinesib, paclitaxel, or a CDK 4/6 inhibitor (palbociclib) was far less than the amount of vehicle control-treated BrdU-stained cells. […] KIF18A inhibitor treatment was also analyzed for impact on live cell count. After 96 hours, live cells were counted by Vi-CELL XR Cell Viability Analyzer (Beckman Coulter).
To investigate whether KIF18A inhibitors could circumvent this normal cell toxicity barrier, we examined the effects of Compounds C9 and C11 on a panel of cycling normal somatic cell types. First, we treated human bone marrow mononuclear cells (HBMNC) from two normal donors with DMSO, Compound C9 and C11 at 1 μM, ispinesib at 0.05 μM, paclitaxel at 0.05 μM, or palbociclib at 1 μM for 48 h (cell cycle) or 96 h (cell growth).
BrdU and cell cycle analysis. Human bone marrow mononuclear cells (HBMNCs) from two normal donors (#37612, #37534) were cultured for 8 days in defined media as previously described (Payton et al 2018). HBMNCs were seeded in 24-well plate at 1.2×10^6 cells per well in duplicate plates. Cells were treated with DMSO, Compound C9 (1 μM), Compound C11 (1 μM), ispinesib (0.05 μM), paclitaxel ([…]), or palbociclib (1 μM). Cells were collected at 48 h (cell cycle) and 96 h (cell growth). The first set of plates were pulsed with BrdU for 2 h and processing for BrdU cell cycle analysis as previously described (Payton et al 2018). Cells were analyzed on BD LSRFortessa flow cytometer running BD FACSDiva software and post-acquisition data analysis was performed using FSC-Express software. Data was reported for the percentage of BrdU and subG1 gated populations. The second set of plates were collected, and cells counted using Vi-CELL XR Cell Viability Analyzer (Beckman Coulter).

Data set [8] has the same test system. Described as above. The format is cell-based. The conditions noted are these: 96 h; ispinesib 0.05 μM, paclitaxel 0.05 μM, palbociclib 1 μM.
Setting [9] is: OVCAR-3 study, C9 100 mg/kg, C12 25 mg/kg IP daily.

T2 sequence (Q91WD7 1-467): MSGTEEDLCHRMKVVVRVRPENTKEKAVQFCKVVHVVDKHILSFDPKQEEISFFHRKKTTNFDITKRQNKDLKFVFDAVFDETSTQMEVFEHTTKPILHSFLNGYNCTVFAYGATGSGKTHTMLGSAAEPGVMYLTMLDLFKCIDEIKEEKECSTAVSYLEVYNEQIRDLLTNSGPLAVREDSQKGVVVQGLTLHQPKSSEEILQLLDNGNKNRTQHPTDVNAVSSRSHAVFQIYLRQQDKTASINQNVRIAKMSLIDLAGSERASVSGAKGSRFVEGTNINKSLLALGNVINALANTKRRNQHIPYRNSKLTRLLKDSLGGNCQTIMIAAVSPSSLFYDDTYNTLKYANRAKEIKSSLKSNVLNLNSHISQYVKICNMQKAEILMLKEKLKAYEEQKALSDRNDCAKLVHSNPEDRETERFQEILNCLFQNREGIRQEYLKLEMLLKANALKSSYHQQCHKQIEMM
T2 sequence (P02550 whole entry partner, the tested form may be a part): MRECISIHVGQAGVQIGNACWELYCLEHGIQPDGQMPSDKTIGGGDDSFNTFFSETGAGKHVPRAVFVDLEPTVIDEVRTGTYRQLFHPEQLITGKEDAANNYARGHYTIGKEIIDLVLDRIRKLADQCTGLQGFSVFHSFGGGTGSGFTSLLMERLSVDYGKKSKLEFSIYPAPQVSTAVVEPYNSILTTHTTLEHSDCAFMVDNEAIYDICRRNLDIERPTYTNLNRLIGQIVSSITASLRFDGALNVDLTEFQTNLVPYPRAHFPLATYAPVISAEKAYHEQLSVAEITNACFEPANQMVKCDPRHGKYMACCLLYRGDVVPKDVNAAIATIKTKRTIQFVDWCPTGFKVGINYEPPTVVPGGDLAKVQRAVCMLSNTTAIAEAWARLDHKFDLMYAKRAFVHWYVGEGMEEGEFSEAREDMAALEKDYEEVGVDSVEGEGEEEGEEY
T2 sequence (P02554 whole entry partner, the tested form may be a part): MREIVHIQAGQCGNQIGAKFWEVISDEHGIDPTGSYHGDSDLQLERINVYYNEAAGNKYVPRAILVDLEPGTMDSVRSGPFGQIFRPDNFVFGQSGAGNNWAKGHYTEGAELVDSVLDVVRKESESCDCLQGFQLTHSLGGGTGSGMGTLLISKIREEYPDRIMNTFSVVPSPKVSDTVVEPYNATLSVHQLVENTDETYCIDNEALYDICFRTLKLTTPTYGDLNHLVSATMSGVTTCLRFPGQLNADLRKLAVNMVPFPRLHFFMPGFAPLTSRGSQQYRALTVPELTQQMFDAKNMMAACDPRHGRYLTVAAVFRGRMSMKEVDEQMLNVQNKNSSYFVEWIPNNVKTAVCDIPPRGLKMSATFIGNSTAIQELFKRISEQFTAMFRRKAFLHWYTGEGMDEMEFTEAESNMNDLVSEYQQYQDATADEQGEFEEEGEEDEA
T1 sequence (Q8NI77 1-467): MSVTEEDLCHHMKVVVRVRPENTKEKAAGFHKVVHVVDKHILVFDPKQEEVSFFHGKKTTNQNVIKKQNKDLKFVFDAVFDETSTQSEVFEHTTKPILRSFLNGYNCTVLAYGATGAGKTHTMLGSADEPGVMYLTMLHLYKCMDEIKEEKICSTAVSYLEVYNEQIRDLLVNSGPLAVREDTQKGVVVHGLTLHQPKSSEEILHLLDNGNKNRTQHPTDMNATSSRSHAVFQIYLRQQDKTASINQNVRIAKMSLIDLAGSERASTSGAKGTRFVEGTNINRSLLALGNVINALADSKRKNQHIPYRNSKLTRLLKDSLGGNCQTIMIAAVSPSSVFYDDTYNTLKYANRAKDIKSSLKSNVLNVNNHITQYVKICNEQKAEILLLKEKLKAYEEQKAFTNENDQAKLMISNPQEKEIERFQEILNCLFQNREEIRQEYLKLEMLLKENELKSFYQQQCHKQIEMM
T1 sequence (P02550 whole entry partner, the tested form may be a part): as the sequence (P02550 whole entry partner, the tested form may be a part) above
T1 sequence (P02554 whole entry partner, the tested form may be a part): as the sequence (P02554 whole entry partner, the tested form may be a part) above
Protocol for OVCAR-3 tumors: Mice were injected with human OVCAR-3 cells (5.0×10^6) subcutaneously in the right flank. Animals with established tumors were randomized into four groups (n=10 per group) with average tumor volume of 130 mm^3. […] Treatment started on day 24 post-tumor implantation and treatment terminal on day 42. Tumor volumes and body weights were recorded twice per week using a digital caliper and analytical lab scale, respectively. […] The percentage of tumor growth inhibition (% TGI) was calculated as % TGI relative to vehicle control: % TGI=100−[(Treated−Initial Volume)/(Control−Initial Volume)×100]. The percentage of tumor regression (% TR) was calculated as % TR compared final tumor volume to the initial tumor volume: % TR=100−[(Final Volume)/(Initial Volume)×100]. Data was graphed using GraphPad Prism 7.05. Statistical analysis was performed on treatment groups for tumor growth and blood counts using repeated measures ANOVA and one-way ANOVA, respectively, followed by Dunnett's multiple comparisons test.

As for `C[C@@H]1CN(c2cccc(NC(=O)c3ccc(NS(=O)(=O)CCO)cc3N3CCC4(CC3)CC4)n2)CCO1` [Compound C12, (R)-4-((2-Hydroxyethyl)sulfonamido)-N-(6-(2-methylmorpholino)pyridin-2-yl)-2-(6-azaspiro[2.5]octan-6-yl)benzamide], the tumor regression is 46% with OVCAR-3 tumors, 19% with OVCAR-8 tumors (25 mg/kg IP once daily for 18 consecutive days) and 75% in the data set with OVCAR-8 tumors (50 mg/kg IP once daily for 18 consecutive days). Further, the “tolerability (body weight)” value in [1] (CAL-51 study, C9 100 mg/kg, C12 25 mg/kg IP daily) is “well-tolerated”; in data set [1] (OVCAR-8 study, C9 50 or 100 mg/kg, C12 25 or 50 mg/kg IP daily), “well-tolerated”. In [1] (OVCAR-3 study, 25 mg/kg IP daily, p=0.043), the monocyte count entry is “decrease on monocytes”. Also, the “body weight loss or changes in blood counts” value in [1] (setting [9]) is reported as “no evidence of body weight loss or changes in blood counts”. Also, in data set [1] (setting [9]), the tolerability result is on record as “well-tolerated”. Moreover, the IC50 in data set [2] was 40 nM; in data set [3], 39 nM. For the same compound, the “plasma AUC in OVCAR-8 study relative to the other efficacy studies” value in [4] (at matched doses) came out at 2.8 fold. Moreover, in data set [4] (nude, mouse, plasma, OVCAR-3 study, 25 mg/kg IP, after the final dose), the AUC is 53 µM·h. Further, the “improvement of cell potency relative to a control compound” value in the data set on MDA-MB-157 cells is reported as more than 120 fold.

On to `Cc1ccc(C(=O)N(CCCN)[C@@H](c2nc3cc(Cl)ccc3c(=O)n2Cc2ccccc2)C(C)C)cc1` [Ispinesib, reference compound], for which the “BrdU incorporation relative to DMSO treated cells” value in data set [5] and in data set [6] was “decrease in BrdU incorporation” throughout. In [7] (48 h, C9, C11, palbociclib 1 μM, ispinesib 0.05 μM, paclitaxel), the “cell cycle DNA content profiles” value is recorded as “marked effects on cell cycle DNA content profiles”. Besides, the “BrdU incorporation (cell cycle analysis) relative to DMSO/vehicle control” value in data set [7] (two normal donors, 48 h, C9, C11, palbociclib 1 μM, ispinesib 0.05 μM, paclitaxel) was “far less”; in data set [7] (two normal donors, 48 h, C9, C11, palbociclib 1 μM, ispinesib 0.05 μM, paclitaxel, listed as ispinesib) it was “clearly cytotoxic”. Besides, the “live cell count relative to vehicle control” value in [7] (two normal donors, 96 hours) is “lower cell count”. The “reduction in cell growth” value in [8] is approximately 88%.

For the origin of these results see US20230151432A1, “KIF18A INHIBITORS FOR TREATMENT OF NEOPLASTIC DISEASES” (AMGEN INC., priority 2020, published 2023).
